Common to all, as to experiment: NCI-60 single-dose antiproliferative assay (SRB)
Type in all cases: cell-based

The subject of experiment [1] is A549/ATCC. As to conditions: Homo sapiens, 10 μM single dose, Non-small cell lung cancer, read-out: Cell Growth inhibition Percent. In outline: (§1)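 A 48 h exposure to 10 µM compound, in triplicate wells, followed 24 h of cell attachment in RPMI 1640 with 5% FBS and 2 mM glutamine. TCA-fixed cells were stained with SRB and read at 515 nm to give percent growth relative to controls.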

For experiment [2], the system named is BT-549. As to conditions: Homo sapiens; 10 μM single dose; BT-549, Breast cancer; read-out: Cell Growth inhibition Percent. The gist of the method:
as §1

Experiment [3] relates to COLO205. The note with it: Homo sapiens, COLO 205; 10 μM single dose; COLO205, Colon cancer; read-out: Cell Growth inhibition Percent. In outline:
as §1

The subject of experiment [4] is HCT-15. The note with it: Homo sapiens; 10 μM single dose; HCT-15, Colon cancer; read-out: Cell Growth inhibition Percent. The gist of the method: as §1
The test system of experiment [5] is HT29. The note with it: Homo sapiens, HT-29; 10 μM single dose; HT29, Colon cancer; read-out: Cell Growth inhibition Percent. In outline: as §1
Experiment [6] concerns MDA-MB-468. The note with it: Homo sapiens; 10 μM single dose; MDA-MB-468, Breast cancer; read-out: Cell Growth inhibition Percent. The gist of the method:
as §1

For experiment [7], the system named is NCI-H460. The note with it: Homo sapiens; 10 μM single dose; NCI-H460, Non-small cell lung cancer; read-out: Cell Growth inhibition Percent. The gist of the method: as §1
The subject of experiment [8] is RPMI-8226. The note with it: Homo sapiens; 10 μM single dose; RPMI-8226, Leukemia; read-out: Cell Growth inhibition Percent. In outline:
as §1

Experiment [9] concerns SF-539. The note with it: Homo sapiens; 10 μM single dose; SF-539, CNS cancer; read-out: Cell Growth inhibition Percent. The gist of the method: as §1
The test system of experiment [10] is SK-OV-3. The note with it: Homo sapiens; 10 μM single dose; SK-OV-3, Ovarian Cancer; read-out: Cell Growth inhibition Percent. In outline: as §1
Experiment [11] relates to OVCAR-8. The note with it: Homo sapiens; 10 μM single dose; OVCAR-8, Ovarian Cancer; read-out: Cell Growth inhibition Percent. In outline: as §1
The test system of experiment [12] is T-47D. As to conditions: Homo sapiens, T47D, 10 μM single dose, Breast cancer, read-out: Cell Growth inhibition Percent. In outline:
as §1

For experiment [13], the system named is 786-0. The note with it: Homo sapiens; 10 μM single dose; 786-0, Renal cancer; read-out: Cell Growth inhibition Percent. The gist of the method:
as §1

The test system of experiment [14] is A498. The note with it: Homo sapiens; 10 μM single dose; A498, Renal cancer; read-out: Cell Growth inhibition Percent. In outline: as §1
Experiment [15] concerns SK-MEL-2. The note with it: Homo sapiens; 10 μM single dose; SK-MEL-2, Melanoma; read-out: Cell Growth inhibition Percent. The gist of the method:
as §1

The subject of experiment [16] is MOLT-4. As to conditions: Homo sapiens; 10 μM single dose; MOLT-4, Leukemia; read-out: Cell Growth inhibition Percent. In outline: as §1
For experiment [17], the system named is RXF 393. The note with it: Homo sapiens; 10 μM single dose; RXF 393, Renal cancer; read-out: Cell Growth inhibition Percent. The gist of the method: as §1
The test system of experiment [18] is OVCAR-5. As to conditions: Homo sapiens; 10 μM single dose; OVCAR-5, Ovarian Cancer; read-out: Cell Growth inhibition Percent. In outline: as §1

Regarding `O=C1Nc2ccccc2C1=CNc1ccc(C(=O)C=CNc2nccs2)cc1` [Compound 13c, 3-{[(4-{3-[Thiazol-2-ylamino]acryloyl}phenyl)amino]methylene}indolin-2-one], the inhibition at 10 µM in [1] was determined as 21.6%; in [2] it was 13.6%; in [3], 1.8%; in experiment [4] it was 12%; in [5], 8.13%; in experiment [6], 23.5%. For the same compound, the inhibition at 10 µM was 7.04% in experiment [7], 35% in experiment [8], 1.96% in experiment [9] and 3.75% in [10].

As for `O=C1Nc2ccccc2C1=CNc1ccc(CNc2ccc(S(=O)(=O)Nc3ncccn3)cc2)cc1` [Compound 11b, 4-{[4-({[2-Oxoindolin-3-ylidene]methyl}amino)benzyl]amino}-N-(pyrimidin-2-yl)benzenesulfonamide], the inhibition at 10 µM is 6.46% in experiment [2]; 9.43% in [4]; 7.66% in experiment [6]; 4.26% in experiment [7]; 1.39% in experiment [11]; 28.9% in experiment [8]. In experiment [12], the inhibition at 10 µM is 27.5%.

Regarding `O=C1Nc2ccccc2C1=CNc1ccc(C(=O)Nc2ccc(S(=O)(=O)Nc3ncccn3)cc2)cc1` [Compound 9b, 4-{[(2-Oxoindolin-3-ylidene)methyl]amino}-N-{4-[N-(pyrimidin-2-yl)sulfamoyl]phenyl}benzamide], the inhibition at 10 µM is 4.99% in [13]; 9.11% in experiment [14]; 27.1% in [2]; 1.64% in experiment [7]; 5.04% in [9].

As for `NS(=O)(=O)N/C=C1/C(=O)Nc2ccccc21` [Compound 5, 3-(sulfamidmethylene)indoline-2-one], the inhibition at 10 µM in [2] worked out at 0.96%; in experiment [15] it was 2.36%; in [10], 5.43%; in [12] it was 7.19%.

With `NS(=O)(=O)c1nnc(NC=C2C(=O)Nc3ccccc32)s1` [Compound 4d, 5-{[(2-Oxoindolin-3-ylidene)methyl]amino}-1,3,4-thiadiazole-2-sulfonamide], the inhibition at 10 µM in [13] came out at 1.8%; in [2], 1.21%; in experiment [11] it was 0.12%; in experiment [9], 3.69%; in experiment [10], 0.47%; in experiment [12], 14.8%.

For `NS(=O)(=O)c1ccc(NCc2ccc(NC=C3C(=O)Nc4ccccc43)cc2)cc1` [Compound 11a, 4-{[4-({[2-Oxoindolin-3-ylidene]methyl}amino)benzyl]amino}benzenesulfonamide], the inhibition at 10 µM in experiment [13] is 0.56%; in [1], 4.86%; in experiment [16], 1.28%; in experiment [17], 26.2%; in [12] it was 6.76%.

Take `O=C(Nc1ccc(NC=C2C(=O)Nc3ccccc32)cc1)Nc1nccs1` [Compound 15c, 1-{4-[((2-Oxoindolin-3-ylidene)methyl)amino]phenyl}-3-(thiazol-2-yl)urea]: the inhibition at 10 µM in [13] turned out to be 47.1%; in [14], 108%; in experiment [1], 43.4%; in experiment [3], 74.2%; in experiment [4], 71%; in experiment [5], 82.1%. In addition, the inhibition at 10 µM came out at 102% in [6]; 67.8% in experiment [16]; 83.2% in experiment [7]; 39.6% in experiment [18]; 44.3% in [11]; 16.4% in [8]. Besides, the inhibition at 10 µM was 120% in experiment [17]; 66.4% in experiment [9]; 37.9% in experiment [15]; 45% in experiment [10]; 58.8% in experiment [12].

On to `O=C1Nc2ccccc2C1=CNc1ccc(C(=O)O)cc1` [Compound 4c, 4-{[(2-Oxoindolin-3-ylidene)methyl]amino}benzoic acid], for which the inhibition at 10 µM in [13] was 4.08%; in experiment [14], 20.1%; in experiment [1], 9.11%; in experiment [18], 0.03%; in experiment [17], 29.6%; in experiment [9], 2.79%.

What is called inhibition is the drop in the measured response relative to a control, in per cent.

(Values after paper PMC10353187, “Discovery of a new potent oxindole multi-kinase inhibitor among a series of designed 3-alkenyl-oxindoles with ancillary carbonic anhydrase inhibitory activity as antiproliferative agents” (BMC Chemistry, 2023).)
